Laboratory results from PubChem BioAssay (NCI).
Several values for one entry are separate records, joined by “and”; a condition that tells them apart may be missing. Equal entries are not always repeated.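 Protocol summary: plate cells (96-well), add compound at 5 concentrations, incubate 48 h, interpolate endpoints linearly. The concentration for 50% growth inhibition is given as GI50. The concentration for full growth arrest is given as TGI.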 *1 amine or outer side, *2 acyl side, *3 side chain or, on linkers, in order; H or OH if unused. Where a SMILES comes first, the peptide text is derived from it. [ ]: non-standard residue; d: D form. The star is where a group is joined. X11 = C/C=C/CC(C)C(O)[C@H](N[*:1])C(=O)[*:2]; Decanoyl = CCCCCCCCCC(=O)*; Leu(ol) = CC(C)C[C@H](N)CO; Iva = CC[C@](C)(N)C(=O)O; Aib = CC(C)(N)C(=O)O

What follows are compounds tested on MDA-MB-468 breast (assay: inhibition of tumour cell growth, NCI panel, 48 h).

| SMILES | GI50 | TGI |
| --- | --- | --- |
| Nc1ccc(C2=NNC(=O)Cc3cc4c(cc32)OCCO4)cc1Cl | 1580 nM | 15.9 µM |
| CCN(Cc1ccc(F)cc1)c1cc(Cl)c(CO)c(Cl)c1 | 1890 nM | 6.34 µM |
| C=C1C(=O)O[C@H]2[C@H]1CC/C(COC(=O)NCc1ccc(Cn3c(=O)sn(-c4ccc(OC)cc4)c3=O)cc1)=C\CC[C@@]1(C)O[C@@H]21 | 1530 nM | 3.54 µM |
| CCCCCCCCCCn1cc[n+](C)c1 | 481 nM | – |
| C/C=C/CC(C)C(O)[C@H](NC(=O)[C@@H]1CCCN1C(=O)C(C)(C)NC(=O)CCCCCCCCC)C(=O)N[C@@](C)(CC)C(=O)N[C@@H](CCC(N)=O)C(=O)N[C@H](CCC(N)=O)C(=O)NC(C)(C)C(=O)NC(C)(C)C(=O)N[C@@H](CCC(N)=O)C(=O)N[C@H](CC(C)C)C(=O)N[C@H](CO)CC(C)C (stereo partly drawn) (Decanoyl-[Aib]P[X11][Iva]Q[dQ][Aib][Aib]Q[dL][Leu(ol)]) | 1790 nM | 3.42 µM |
| CN1CC[C@@H](NC(=O)Nc2ccc(C#N)cc2)C[C@@H]1c1nc2ccccc2[nH]1 | 43300 nM | > 100 µM |
| c1ccc(Sc2ncnc3ccccc23)cc1 | 2980 nM | 12.3 µM |
| CC1(COc2ccc3c(c2)ncn3-c2ccc3cccc(N4CCC(N)CC4)c3n2)COC1 | 1340 nM and 2000 nM | 2.94 µM and 4.95 µM |
| COc1ccc2nc3cc(Cl)ccc3c(NCCNCC(C)O)c2c1 (centres undefined) | 1550 nM | 3.36 µM |
| CCn1c(-c2nonc2N)nc2c(C#CC(C)(C)O)nc(OC[C@@H](N)c3ccccc3)cc21 | 4060 nM | 7.68 µM |
| COc1cc(/C(C#N)=C/c2nc3c(N4CCOCC4)nc(Cl)nc3n2C)cc(OC)c1OC | < 13.1 nM | – |
| CCN1C(=O)N(c2ccccc2)C2NC(=S)N(/N=C/C=C/c3ccccc3OC)C21 (centres undefined) | 114 nM | 14.2 µM |
| COc1ccc(CN2C(=O)/C(=C\c3cc(OC)c(OC)c(OC)c3)c3ccccc32)cc1 | 1940 nM | 5.61 µM |
| CCCOc1cc2ccccc2cc1C(=O)Nc1nc(N)c2c(ccc3nccc32)[nH]1 | 54.2 nM | 0.516 µM |
| COc1ccc([C@H]2[C@H](O)C(=O)N2c2cc(OC)c(OC)c(OC)c2)cc1O | < 10 nM | > 100 µM |
| O=C(/C(=C/c1ccc([N+](=O)[O-])cc1)SCc1ccccc1)c1ccc(Cl)cc1 | 2250 nM | 5.83 µM |
| Nc1c(C(=O)Nc2cccc(C(F)(F)F)c2)sc2nc3c(cc12)CCCCC3 | 394 nM | 3.01 µM |
| Cc1nnc(NC(=O)c2nc(S(=O)(=O)Cc3ccc(F)cc3)ncc2Cl)s1 | 1200 nM | 3.28 µM |
| O=C(CCCSc1nc(-c2ccccc2)cc(-c2ccccc2)n1)NO | 1490 nM | 4.69 µM |
| Nc1cc(NN=C(c2ccc(O)cc2)c2ccc(O)cc2)c([N+](=O)[O-])cc1[N+](=O)[O-] | 2190 nM | 4.82 µM |
| COc1cccc(C(=O)NC(c2ccc(C)cc2)c2cc(Cl)c3cccnc3c2O)c1 (centres undefined) | 397 nM | 2.72 µM |
| Cc1cc(C)cc(NC2=C(Cl)C(=O)c3nc(C)ccc3C2=O)c1 | 1640 nM | 3.2 µM |

| SMILES | GI50 | TGI |
| --- | --- | --- |
| COC[C@H]1Cn2cc(-c3nc(Nc4ccnn4C)ncc3C)nc2C(=O)N1Cc1ccc(F)c(F)c1 | 26300 nM | > 100 µM |
| Cc1csc(-c2nnc(Nc3ccc(Oc4ncccc4-c4ccnc(N)n4)cc3)c3ccccc23)c1 | < 11.5 nM | > 100 µM |
| CCN(C(=O)N1CCN(c2cc3c(cc2F)c(=O)c(C(=O)O)cn3C2CC2)CC1)c1nc(-c2ccc(Cl)cc2)cs1 | 1490 nM | 6.79 µM |
| CCCCCCCCCCCCCCCC[N+](C)(C)Cc1ccccc1 | 328 nM | 1.2 µM |
| COc1cccc(-c2nc(-c3ccc(NC(=O)OC(C)C)cc3)[nH]c2-c2ccnc(Br)c2)c1 | 2030 nM | 6.5 µM |
| O=C(Nc1ccc(Oc2ccc(Nc3nc4ccccc4s3)cc2)cc1)Nc1ccc(Cl)c(C(F)(F)F)c1 | 405 nM | 2.2 µM |
| CN(C)c1cc(NN=C(c2ccc(O)cc2)c2ccc(O)cc2)c([N+](=O)[O-])cc1[N+](=O)[O-] | 10100 nM | 22.6 µM |
| Nc1ccccc1SC(CC(=O)c1ccccc1)c1cccc([N+](=O)[O-])c1 (centres undefined) | 15400 nM | 31.3 µM |
| O=C1c2cc3c(cc2-c2c1c1ccc(F)cc1c(=O)n2C[C@H](O)[C@@H](O)[C@H](O)CO)OCO3 | 27.4 nM | 0.0759 µM |
| COc1ccc(CCN=C2NC(=O)/C(=C/c3ccc4ncccc4c3)S2)cc1 | > 18700 nM | > 25 µM |
| Nc1n[nH]c2cccc(C#Cc3cccc(C(=O)Nc4ccc(CN5CCOCC5)c(C(F)(F)F)c4)c3)c12 | 2870 nM | 9.72 µM |
| COc1ccc(-c2cn[nH]c2-c2cc(OC)c(OC)c(OC)c2)cc1 | 42.2 nM | 30.3 µM |
| Clc1cccc(/C=N/Nc2nc(N/N=C/c3cccc(Cl)c3)nc(N3CCOCC3)n2)c1 | 1650 nM | 4.28 µM |
| O=C1NC(=NC(CO)Cc2ccccc2)S/C1=C\c1ccc2ncccc2c1 (centres undefined) | 7070 nM and 2140 nM | > 25 µM and 13.7 µM |
| Nc1n[nH]c2cc(F)c([C@@H]3Nc4ccc5[nH]ncc5c4[C@H]4C5CCC(C5)[C@@H]34)cc12 (some centres undefined) | 150 nM | 1.9 µM |
| COCCOc1ccc(-c2nc3ccc(-c4nc5ccc(N6CCN(C)CC6)cc5[nH]4)cc3[nH]2)cc1 | 1420 nM | 4.16 µM |
| O=C(N/N=C/c1ccc[nH]1)c1[nH]c2ccc(Br)cc2c1-c1ccccc1 | 196 nM | 1.15 µM |
| CN1CCN(Cc2ccc(NC(=O)c3cncc(C#Cc4cnc5ccc(N6CCSCC6)nn45)c3)cc2C(F)(F)F)CC1 | 146 nM | 0.302 µM |
| CC(C)[C@@H]1C=C2CC[C@H]3[C@](C)(CN)CCC[C@]3(C)[C@H]2CC1 | 13200 nM | 28.2 µM |
| COc1ccc(/C=N/NC(=O)c2cccc3cc[nH]c23)cc1O | 3350 nM | > 25.2 µM |
| COc1cc(-c2ccc3cc(OC)c(OC)c(OC)c3c2)cc(OC)c1OC | 3300 nM | > 100 µM |
